Measured values taken from article PMC2453633 (Diabetes, 2008).
Peptide text beside a SMILES is read from it.

What was measured:
[1] = test system: ACP T-cell hybridomas; experiment: T-cell hybridoma reactivity with nonamers spanning PI-1; assay type: cell-based, mouse; settings: eight ACP T-cell hybridomas tested; all negative
[2] = molecular target: T1, I-A^g7 (Mus musculus, UniProt P04228+Q31135); assay type: binding
T1 sequence (P04228 24-256): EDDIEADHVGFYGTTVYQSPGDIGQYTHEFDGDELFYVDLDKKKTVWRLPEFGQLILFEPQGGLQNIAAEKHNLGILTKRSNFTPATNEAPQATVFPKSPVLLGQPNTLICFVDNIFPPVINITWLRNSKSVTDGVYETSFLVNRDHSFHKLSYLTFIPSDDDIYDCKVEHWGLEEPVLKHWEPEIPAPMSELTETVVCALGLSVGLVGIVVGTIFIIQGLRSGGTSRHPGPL
T1 sequence (Q31135 1-263): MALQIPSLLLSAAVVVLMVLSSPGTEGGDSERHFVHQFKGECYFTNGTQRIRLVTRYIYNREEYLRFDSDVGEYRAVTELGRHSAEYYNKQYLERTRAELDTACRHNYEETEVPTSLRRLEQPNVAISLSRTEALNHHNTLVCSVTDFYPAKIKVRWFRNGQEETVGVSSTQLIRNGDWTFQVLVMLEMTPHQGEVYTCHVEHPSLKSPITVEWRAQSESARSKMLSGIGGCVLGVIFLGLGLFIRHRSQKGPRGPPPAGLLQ

[3] = molecular target: I-A^k (Mus musculus, UniProt P01910+P06343); experiment: Peptide-binding assay on soluble I-A^k

Molecule | T-cells reactive with nonamer (of T-cells tested) [1] | IC50 [2] [µM] | IC50 [3] [µM]
QTLALEVAR | 0 of 8 |  | 
CC(C)[C@H](NC(=O)[C@H](CCCCN)NC(=O)[C@H](CCCCN)NC(=O)CN)C(=O)N[C@@H](C)C(=O)N[C@H](C(=O)N[C@H](C(=O)N[C@H](C(=O)N[C@@H](Cc1c[nH]cn1)C(=O)N[C@@H](C)C(=O)NCC(=O)N[C@@H](Cc1ccc(O)cc1)C(=O)NCC(=O)O)C(C)C)[C@@H](C)O)[C@@H](C)O [MIME, reference compound] (H-GKKVATTVHAGYG-OH) |  | 1 | 
CC(C)C[C@H](NC(=O)[C@H](C)NC(=O)[C@H](CC(C)C)NC(=O)[C@@H](NC(=O)[C@H](CCC(N)=O)NC(=O)[C@H](CC(C)C)NC(=O)[C@H](CC(=O)O)NC(=O)CNC(=O)[C@@H]1CCCN1C(=O)[C@@H](N)CO)[C@@H](C)O)C(=O)N[C@@H](CCC(=O)O)C(=O)N[C@H](C(=O)N[C@@H](C)C(=O)N[C@@H](CCCNC(=N)N)C(=O)N[C@@H](CCC(N)=O)C(=O)N[C@@H](CCCCN)C(=O)N[C@@H](CCCNC(=N)N)C(=O)NCC(=O)O)C(C)C [PI-1(47–64)] (H-SPGDLQTLALEVARQKRG-OH) |  | 98.9 | 4.8
LQTLALEVA | 0 of 8 |  | 
CC(C)C[C@H](NC(=O)[C@H](C)NC(=O)[C@H](CC(C)C)NC(=O)[C@@H](NC(=O)[C@H](CCC(N)=O)NC(=O)[C@H](CC(C)C)NC(=O)[C@H](CC(=O)O)NC(=O)CN)[C@@H](C)O)C(=O)N[C@@H](CCC(=O)O)C(=O)N[C@H](C(=O)N[C@@H](C)C(=O)N[C@@H](CCCNC(=N)N)C(=O)N[C@@H](CCC(N)=O)C(=O)O)C(C)C [PI-1(49–61)] (H-GDLQTLALEVARQ-OH) |  | 20 | 
CC(C)C[C@H](NC(=O)[C@H](C)NC(=O)[C@H](CC(C)C)NC(=O)[C@@H](NC(=O)[C@H](CCC(N)=O)NC(=O)[C@H](CC(C)C)NC(=O)[C@H](CC(=O)O)NC(=O)CNC(=O)[C@H](C)NC(=O)CN)[C@@H](C)O)C(=O)N[C@@H](CCC(=O)O)C(=O)N[C@H](C(=O)N[C@@H](C)C(=O)N[C@@H](CCC(N)=O)C(=O)N[C@@H](CCC(N)=O)C(=O)N[C@@H](CCCCN)C(=O)N[C@@H](CCCNC(=N)N)C(=O)NCC(=O)O)C(C)C [PI-2(49–66)] (H-GAGDLQTLALEVAQQKRG-OH) |  | 136 | 2.1
TLALEVARQ | 0 of 8 |  | 
